In ChEMBL document CHEMBL3351640, “Design, regioselective synthesis and cytotoxic evaluation of 2-aminoimidazole-quinoline hybrids against cancer and primary endothelial cells” (Eur J Med Chem, 2014):

What was measured:
[1] = Cytotoxicity against human HCT116 cells after 48 hrs by MTT assay; format: functional, cell-based; settings: HCT-116, 48 h
[2] = Cytotoxicity against human DLD1 cells after 48 hrs by MTT assay; format: functional, cell-based; settings: DLD-1, 48 h
MDA-MB-231 = assay: Cytotoxicity against human MDA-MB-231 cells after 48 hrs by MTT assay; format: functional, cell-based; settings: MDA-MB-231, 48 h
HUVEC = assay: Cytotoxicity against HUVEC cells after 48 hrs by MTT assay; format: cell-based; settings: Homo sapiens

Structure (SMILES)	IC50 [1] [µM]	IC50 [2] [µM]	IC50 (MDA-MB-231) [µM]	IC50 (HUVEC) [µM]
Cc1ccc2nc(Cl)c(/C=N/n3cc(-c4cccc5ccccc45)nc3N)cc2c1	5.84	8.3	> 50	9.58
Cc1ccc2nc(Cl)c(/C=N/n3cc(-c4ccc(Cl)cc4)nc3N)cc2c1	> 50	38.9	35.2	38.5
COc1ccc(-c2cn(/N=C/c3cc4ccccc4nc3Cl)c(N)n2)cc1	31.8	> 50	> 50	12.4
Cc1ccc2nc(Cl)c(/C=N/n3cc(-c4ccc5ccccc5c4)nc3N)cc2c1	27.4	10.2	35.6	11.3
COc1cccc2c1C(=O)c1c(O)c3c(c(O)c1C2=O)C[C@@](O)(C(=O)CO)C[C@@H]3O[C@H]1C[C@H](N)[C@H](O)[C@H](C)O1 [DOXORUBICIN]	0.34	0.84	1.47	
Nc1nc(-c2cccc3ccccc23)cn1/N=C/c1cc2ccccc2nc1Cl	6.34	9.48	> 50	> 50
Cc1ccc2nc(Cl)c(/C=N/n3cc(-c4ccccc4)nc3N)cc2c1	7.12	8.79	48.1	41.5
Nc1nc(-c2ccc(Cl)cc2)cn1/N=C/c1cc2ccccc2nc1Cl	> 50	> 50	> 50	28
Nc1nc(-c2ccccc2)cn1/N=C/c1cc2ccccc2nc1Cl	6.92	16.4	49	46.7
COc1ccc(-c2cn(/N=C/c3cc4cc(C)ccc4nc3Cl)c(N)n2)cc1	> 50	25.7	23.6	12.2
Cc1ccc(-c2cn(/N=C/c3cc4cc(C)ccc4nc3Cl)c(N)n2)cc1	39.6	25.2	22.3	18
Nc1nc(-c2ccc3ccccc3c2)cn1/N=C/c1cc2ccccc2nc1Cl	> 50	> 50	> 50	36.2
Cc1ccc2nc(Cl)c(/C=N/n3cc(-c4cccs4)nc3N)cc2c1	7.71	8.99	> 50	38
Nc1nc(-c2ccc(Br)cc2)cn1/N=C/c1cc2ccccc2nc1Cl	> 50	23.9	> 50	11.9
Cc1ccc2nc(Cl)c(/C=N/n3cc(-c4ccc(Br)cc4)nc3N)cc2c1	49.9	39.3	38.2	13.4
Cc1ccc(-c2cn(/N=C/c3cc4ccccc4nc3Cl)c(N)n2)cc1	> 50	> 50	> 50	> 50
Nc1nc(-c2cccs2)cn1/N=C/c1cc2ccccc2nc1Cl	7.22	10.3	> 50	10.2
